Measurements: publication PMC5740381 (Antimicrobial Agents and Chemotherapy, 2017)
Values joined by “and” are separate entries in the source; they are usually repeats but may differ in a detail not shown here. Equal entries are not always repeated. Where two headings read alike, the source gives them in different places.

Columns and labels:
[1] = tested on: HCV replicons with genotype 4d patient proteases; test: Transient replicon assay with proteases from HCV-infected patients; assay type: cell-based; settings: Hepatitis C virus, 96 h, subtype 4d, no polymorphism, 3 samples
From the text: (§1) […]. Each of the NS3 gene sequences from genotypes 1, 2, and 4, with the exception of two genotype 2b sequences, was derived from serum or plasma from an HCV-infected patient by bulk PCR amplification, producing a population of sequences representing the viral quasispecies. Two genotype 2b sequences were synthesized based on the consensus sequences of the respective samples. One genotype 3a sequence was synthesized based on a consensus sequence from the sequences available in the Los Alamos HCV sequence database, and another genotype 3a sequence was a clonal sequence derived from a patient sample. The genotype 5a sequence (strain SA13) was synthesized based on the published sequence of the HCV isolate ([48]).
(§2) Transient replicons containing NS3 from clinical samples from HCV genotype 1a- and 1b-infected patients were described previously ([28]). For the transient replicons containing NS3/4A from samples from genotype 3a-infected patients, the first 251 amino acids of NS3 and the region encoding NS4A amino acids 21 to 32 (numbered relative to the NS4A coding region) from these HCV samples were cloned to replace the corresponding residues from the backbone of a genotype 1b Con1 shuttle vector. A genotype 1b Con1 transient replicon shuttle vector was also used to clone the region encoding the first 251 amino acids of NS3 from samples from genotype 4a- or 4d-infected patients in place of the corresponding region from HCV genotype 1b Con1.
(§3) For the analysis of NS3 sequences from patients, we defined a polymorphism to be an amino acid difference in the sequence of a baseline sample relative to the sequence of the appropriate HCV subtype reference sequence: genotype 1a H77 (GenBank accession number NC_004102), genotype 1b Con1 (GenBank accession number AJ238799), genotype 2a JFH-1 (GenBank accession number AB047639), genotype 2b HC-J8 (GenBank accession number D10988), genotype 3a S52 (GenBank accession number GU814263), genotype 4a ED43 (GenBank accession number GU814265), genotype 4d QC382 (GenBank accession number FJ462437), and genotype 5a SA13 (GenBank accession number AF064490). Polymorphisms were assessed at the following NS3 amino acid positions that are associated with resistance to the HCV PI class: 36, 43, 54, 55, 56, 80, 122, 155, 156, and 168. All DNA sequencing was performed by the Sanger sequencing method.

[2] = tested on: HCV replicons with genotype 1b patient proteases; test: as above; assay type: cell-based; settings: Hepatitis C virus, subtype 1b, no polymorphism, 9 samples
From the text: as §1, §2, §3

[3] = tested on: HCV replicons with genotype 1a patient proteases; test: as above; assay type: cell-based; settings: Hepatitis C virus
From the text: as §1, §2, §3

[4] = tested on: HCV replicons with genotype 3a patient proteases; test: as above; assay type: cell-based; settings: Hepatitis C virus, subtype 3a, no polymorphism, 2 samples
From the text: as §1, §2, §3

[5] = MTT cytotoxicity assay; settings: human
Procedure: For MT4 cells, 10,000 cells/well were plated immediately before the addition of glecaprevir. The rest of the assay was performed as described previously ([33]).

[6] = tested on: HBV; test: Anti-HBV assay, extracellular HBV DNA by quantitative PCR; assay type: cell-based; settings: Hepatitis B virus, read-out: Mean EC50 ± SD
[7] = tested on: HCV replicons with genotype 4a patient proteases; test: Transient replicon assay with proteases from HCV-infected patients; assay type: cell-based; settings: Hepatitis C virus
From the text: Each of the NS3 gene sequences from genotypes 1, 2, and 4, with the exception of two genotype 2b sequences, was derived from serum or plasma from an HCV-infected patient by bulk PCR amplification, producing a population of sequences representing the viral quasispecies. Two genotype 2b sequences were synthesized based on the consensus sequences of the respective samples. One genotype 3a sequence was synthesized based on a consensus sequence from the sequences available in the Los Alamos HCV sequence database, and another genotype 3a sequence was a clonal sequence derived from a patient sample. The genotype 5a sequence (strain SA13) was synthesized based on the published sequence of the HCV isolate ([48]).
Transient replicons containing NS3 from clinical samples from HCV genotype 1a- and 1b-infected patients were described previously ([28]).
as §3, with “Polymorphisms were assessed at the following NS3 amino acid positions that are associated with resistance to the HCV PI class: 36, 43, 54, 55, 56, 80, 122, 155, 156, and 168.” left out

[8] = tested on: HCV replicons with genotype 2a patient proteases; test: as above; assay type: cell-based; settings: Hepatitis C virus, subtype 2a, no polymorphism, 4 samples
From the text: as §1
A genotype 2a JFH-1 replicon shuttle vector was used to generate transient replicons containing NS3 from clinical samples from genotype 2a- and genotype 2b-infected patients. The region encoding the first 227 amino acids of NS3 from samples from genotype 2a- and 2b-infected patients was used to replace the corresponding region in the genotype 2a JFH-1 replicon shuttle vector. The genotype 2a JFH-1 replicon shuttle vector was also used to generate a transient replicon containing a region encoding full-length NS3 through the first 39 amino acids of NS5B from genotype 5a (strain SA13). […]

CC(C)(C)[C@@H]1NC(=O)O[C@@H]2CCC[C@H]2OC/C=C/C(F)(F)c2nc3ccccc3nc2O[C@@H]2C[C@@H](C(=O)N[C@]3(C(=O)NS(=O)(=O)C4(C)CC4)C[C@H]3C(F)F)N(C2)C1=O [Glecaprevir, (3aR,7S,10S,12R,21E,24aR)-7-tert-butyl-N-[(1R,2R)-2-(difluoromethyl)-1-{[(1-methylcyclopropyl)sulfonyl]carbamoyl}cyclopropyl]-20,20-difluoro-5,8-dioxo-2,3,3a,5,6,7,8,11,12,20,23,24a-dodecahydro-1H,10H-9,12-methanocyclopenta[18,19][1,10,17,3,6]trioxadiazacyclononadecino[11,12-b]quinoxaline-10-carboxamide]
EC50 ([1]; read-out: EC50 Median): 0.17 nM | EC50 ([1]; read-out: EC50 Range): 0.13 to 0.25 nM | EC50 ([2]; read-out: EC50 Median): 0.29 nM | EC50 ([2]; read-out: EC50 Range): 0.2 to 0.68 nM | EC50 ([3]; all genotype 1a clinical samples, read-out: Median EC50): 0.08 nM | EC50 ([3]; subtype 1a, Q80K, 5 samples, read-out: EC50 Median): 0.09 nM | EC50 ([3]; subtype 1a, Q80K, 5 samples, read-out: EC50 Range): 0.07 to 0.1 nM | EC50 ([3]; subtype 1a, Q80N, 1 sample, read-out: EC50 Median): 0.09 nM | EC50 ([3]; subtype 1a, no NS3 polymorphism, 5 samples, read-out: EC50 Median): 0.06 nM | EC50 ([3]; subtype 1a, no NS3 polymorphism, 5 samples, read-out: EC50 Range): 0.05 to 0.12 nM | EC50 ([4]; read-out: EC50 Median): 2.3 nM | EC50 ([4]; read-out: EC50 Range): 0.71 to 3.8 nM | CC50 [5]: 72 µM and 60 µg/mL | EC50 [6]: > 32000 nM | EC50 ([7]; read-out: EC50 Median, subtype 4a, T54S, 1 sample): 0.44 nM | EC50 ([7]; read-out: EC50 Median, subtype 4a, no polymorphism, 5 samples): 0.39 nM | EC50 ([7]; read-out: EC50 Range, subtype 4a, no polymorphism, 5 samples): 0.31 to 0.55 nM | EC50 ([8]; read-out: EC50 Median): 1.6 nM | EC50 ([8]; read-out: EC50 Range): 0.66 to 1.9 nM
